Results from publication PMC7394586 (OncoTargets and therapy, 2020).

Legend:
MHCC97-H cells [1] = assay: MTT cell survival assay; assay type: cell-based, human; settings: for change of IC50 on MHCC97-H cells on overexpression of miR-3609: miR-3609 overexpression versus control
[2] = Cell-based metabolism/clearance of sorafenib; assay type: in vitro ADME, human; settings: human, MHCC97-H cells, Half-Life Time (t1/2, h), MHCC97-H, Cell-based, 1 μmol/L sorafenib
MHCC97-H cells [3] = assay: Cell-based metabolism/clearance of sorafenib; assay type: in vitro ADME, human; settings: LC-MS/MS, cultured HCC cells
[4] = tested on: MHCC97-H subcutaneous tumors; assay: Tumor-based clearance of sorafenib in subcutaneous tumors; assay type: in vivo, nude mice; settings: Control, sorafenib injected into subcutaneous tumors
[5] = tested on: PDC No. 1 subcutaneous tumors; assay: as above; assay type: in vivo, nude mice; settings: PDC No. 1, Tumor-based, Control; sorafenib injected into subcutaneous tumors
[6] = tested on: PDC No. 3 subcutaneous tumors; assay: as above; assay type: in vivo, nude mice; settings: PDC No. 3, Tumor-based, miR-3609; sorafenib injected into subcutaneous tumors
[7] = tested on: MHCC97-H subcutaneous growth; assay: Antitumor effect in vivo, subcutaneous tumor model; parameters: species or system nude mice; settings: for IC50 values of Soarfenib on Subcutaneous Tumor Weights: MHCC97-H, oral administration every 2 days, 10 treatments
[8] = tested on: PDC No. 1 subcutaneous growth; assay: Antitumor effect in vivo, subcutaneous tumor model; parameters: species or system nude mice; settings: oral administration every 2 days, 10 treatments
[9] = tested on: PDC No. 2 subcutaneous growth; assay: Antitumor effect in vivo, subcutaneous tumor model; parameters: species or system nude mice; settings: oral administration every 2 days, 10 treatments
[10] = tested on: PDC No. 3 subcutaneous growth; assay: Antitumor effect in vivo, subcutaneous tumor model; parameters: species or system nude mice; settings: oral administration every 2 days, 10 treatments
[11] = tested on: PDC No. 4 subcutaneous growth; assay: Antitumor effect in vivo, subcutaneous tumor model; parameters: species or system nude mice; settings: oral administration every 2 days, 10 treatments
[12] = tested on: PDC No. 5 subcutaneous growth; assay: Antitumor effect in vivo, subcutaneous tumor model; parameters: species or system nude mice; settings: oral administration every 2 days, 10 treatments
[13] = Clinical outcome of advanced HCC patients who received sorafenib treatment; assay type: in vivo, human
[14] = patients with EPAS-1 mRNA expression High (n = 26)
[15] = patients with EPAS-1 mRNA expression Low (n = 26)
[16] = patients with miR-3609 expression High (n = 26)
[17] = patients with miR-3609 expression Low (n = 26)

Question: For `N#CC1(c2ccc(NC(=O)c3cccnc3NCc3ccncc3)cc2)CCCC1` [apatinib], which “change of IC50 on MHCC97-H cells on overexpression of miR-3609” value (from here on “change of IC50 on MHCC97-H cells”) (MHCC97-H cells [1]) is on record?
Answer: decreased

Question: With `CNC(=O)c1cc(Oc2ccc(NC(=O)Nc3ccc(Cl)c(C(F)(F)F)c3)cc2)ccn1` [sorafenib] as the compound, how does the “survival of MHCC97-H cells” value (MHCC97-H cells [1]; 0.01-10 μmol/L) read?
Answer: inhibited the survival of MHCC97-H cells in a dose-dependent manner

Question: What about the “change of IC50 on MHCC97-H cells” value (MHCC97-H cells [1]) of the same compound?
Answer: decreased

Question: What about the half-life at 1 μmol/L ([2]; Control) of the same compound?
Answer: 18.6 ± 2.46 h

Question: What about the half-life at 1 μmol/L ([2]; miR-3609 + EPAS-1^Mut) of the same compound?
Answer: 18 ± 3.18 h

Question: What about the half-life at 1 μmol/L ([2]; miR-3609) of the same compound?
Answer: 37.1 ± 6.12 h

Question: And the “metabolism and clearance in HCC cells” value (MHCC97-H cells [3])?
Answer: gradually metabolized and cleared

Question: And the “Half-Life Time (t1/2, h)” value [4]?
Answer: 30.73 ± 6.46 h

Question: And the “Half-Life Time (t1/2, h)” value [5]?
Answer: 26.32 ± 6.91 h

Question: And the “Half-Life Time (t1/2, h)” value [6]?
Answer: 50.73 ± 4.02 h

Question: What about the “IC50 values of Soarfenib on Subcutaneous Tumor Weights” value (shortened to “IC50 values of Soarfenib”) ([7]; Control) of the same compound?
Answer: 2.25 ± 0.44 mg/kg

Question: And the “IC50 values of Soarfenib” value ([7]; miR-3609 + EPAS-1^Mut)?
Answer: 2.51 ± 0.52 mg/kg

Question: What about the “IC50 values of Soarfenib” value ([7]; miR-3609) of the same compound?
Answer: 0.15 ± 0.02 mg/kg

Question: What about the “subcutaneous growth of MHCC97-H cells” value ([7]; nude mice, oral administration) of the same compound?
Answer: inhibited the subcutaneous growth of MHCC97-H cells in a dose-dependent manner

Question: What about the “IC50 values of Soarfenib” value ([8]; PDC No. 1, Control) of the same compound?
Answer: ~3 mg/kg

Question: And the “IC50 values of Soarfenib” value ([8]; PDC No. 1, miR-3609 + EPAS-1^Mut)?
Answer: >3 mg/kg

Question: And the “IC50 values of Soarfenib” value ([8]; PDC No. 1, miR-3609)?
Answer: 0.87 ± 0.39 mg/kg

Question: And the “IC50 values of Soarfenib” value ([9]; PDC No. 2, Control)?
Answer: 1.77 ± 0.20 mg/kg

Question: What about the “IC50 values of Soarfenib” value ([9]; PDC No. 2, miR-3609 + EPAS-1^Mut) of the same compound?
Answer: 2.20 ± 0.45 mg/kg

Question: And the “IC50 values of Soarfenib” value ([9]; PDC No. 2, miR-3609)?
Answer: 0.48 ± 0.10 mg/kg

Question: And the “IC50 values of Soarfenib” value ([10]; PDC No. 3, Control)?
Answer: 1.99 ± 0.54 mg/kg

Question: What about the “IC50 values of Soarfenib” value ([10]; PDC No. 3, miR-3609 + EPAS-1^Mut) of the same compound?
Answer: 1.81 ± 0.41 mg/kg

Question: What about the “IC50 values of Soarfenib” value ([10]; PDC No. 3, miR-3609) of the same compound?
Answer: 0.30 ± 0.04 mg/kg

Question: What about the “IC50 values of Soarfenib” value ([11]; PDC No. 4, Control) of the same compound?
Answer: 2.70 ± 0.70 mg/kg

Question: What about the “IC50 values of Soarfenib” value ([11]; PDC No. 4, miR-3609 + EPAS-1^Mut) of the same compound?
Answer: 2.76 ± 0.62 mg/kg

Question: What about the “IC50 values of Soarfenib” value ([11]; PDC No. 4, miR-3609) of the same compound?
Answer: 0.95 ± 0.60 mg/kg

Question: What about the “IC50 values of Soarfenib” value ([12]; PDC No. 5, Control) of the same compound?
Answer: 2.88 ± 0.39 mg/kg

Question: What about the “IC50 values of Soarfenib” value ([12]; PDC No. 5, miR-3609 + EPAS-1^Mut) of the same compound?
Answer: 2.32 ± 0.69 mg/kg

Question: What about the “IC50 values of Soarfenib” value ([12]; PDC No. 5, miR-3609) of the same compound?
Answer: 0.66 ± 0.21 mg/kg

Question: What about the “OS (overall survival)” value [13, 14] of the same compound?
Answer: 11.0 M

Question: What about the “TTP (time to progress)” value [13, 14] of the same compound?
Answer: 8.0 M

Question: What about the “OS (overall survival)” value [13, 15] of the same compound?
Answer: 16.0 M

Question: What about the “TTP (time to progress)” value [13, 15] of the same compound?
Answer: 13.0 M

Question: What about the “OS (overall survival)” value [13, 16] of the same compound?
Answer: 15.0 M

Question: And the “TTP (time to progress)” value [13, 16]?
Answer: 12.0 M

Question: What about the “OS (overall survival)” value [13, 17] of the same compound?
Answer: 12.0 M

Question: And the “TTP (time to progress)” value [13, 17]?
Answer: 8.0 M

Question: With `COc1cc2c(Oc3ccc4[nH]c(C)cc4c3F)ccnc2cc1OCC1(N)CC1` [anlotinib] as the compound, how does the “change of IC50 on MHCC97-H cells” value (MHCC97-H cells [1]) read?
Answer: decreased

Question: For `COc1cc2nccc(Oc3ccc(NC(=O)NC4CC4)c(Cl)c3)c2cc1C(N)=O` [lenvatinib], which “change of IC50 on MHCC97-H cells” value (MHCC97-H cells [1]) is on record?
Answer: decreased

Question: For `CNC(=O)c1cc(Oc2ccc(NC(=O)Nc3ccc(Cl)c(C(F)(F)F)c3)c(F)c2)ccn1` [regorafenib], which “change of IC50 on MHCC97-H cells” value (MHCC97-H cells [1]) is on record?
Answer: decreased
